Test results from patent US20230000813A1, “COMPOUND FOR THE TREATMENT OF BOVINE OR SWINE RESPIRATORY DISEASE” (Intervet Inc., priority 2016, published 2023).
Several values for one entry are separate records, joined by “and”; a condition that tells them apart may be missing. Equal entries are not always repeated.

What was measured:
M. haemolytica = experiment: Mannheimia haemolytica cattle lung infection model, efficacy (Example 10); type: in vivo, cattle calves; conditions: 3 calves, 10 mg/kg
Method: Unless otherwise described the study was conducted as described in Clinical Example 8
(§1) Calves were infected via intratracheal instillation of appr. 300 mL of M. haemolytica PBS suspension containing approximately 4×10^9 CFU M. haemolytica in late log phase on Day 0.
One hour later three animals each were treated with 10 mg/kg of Compound 231(referred to as C. 231) (80 mg/mL in 10% Poloxamer 188), or 10 mg/kg or 5 mg/kg Compound 329 (referred to as C. 329) (150 mg/mL in 35% Cavitron).
The following clinical findings were recorded: The general behavior scores of the animals before (DO am) and after infection with M. haemolytica in the different treated and control groups are indicated in FIG. 8-1: 0=normal; 1=slightly depressive, 2=moderately depressive, 3=highly depressive, 4=recumbency.
The following pathomorphological findings after section on Day 2 were recorded: After measuring the body weight and the lung weight the Lung body mass ratio was calculated as shown in FIG. 8-2. A healthy animal has a lung body mass ration around 1.7 or lower. The area percentage of lung consolidations compared to the total lung tissue and the lung score determined that is a combined score of such percentage of lung consoldiations and the grade. For the “grade” the degree of lung consolidation score was graded from 0 to 3 for each of eight lung lobes: 0 no visible changes, 1 low graded colour changes or induration, 2 medium graded induration, 3 high graded induration, hepatisation, necrosis.
The geometrical means (CFU/g tissue) of bacteriological re-isolations of Mannheimia haemolytica from lung tissue are illustrated in FIG. 8-4.

M. haemolytica M7/2 = experiment: Mannheimia haemolytica cattle lung infection model, efficacy (Example 9); type: in vivo, cattle calves; conditions: 3 calves, SC 10 mg/kg BW
Method: Unless otherwise described the study was conducted as described in Example 8.
as §1
The following clinical findings were recorded: The general behavior scores of the animals before (DO am) and after infection with M. haemolytica in the different treated and control groups are indicated in FIG. 7-1: 0 =normal; 1=slightly depressive, 2=moderately depressive, 3=highly depressive, […] recumbency.
The following pathomorphological findings after section on Day 2 were recorded: After measuring the body weight and the lung weight the Lung body mass ratio was calculated as shown in FIG. 7-2. A healthy animal has a lung body mass ration around 1.7 or lower. The area percentage of lung consolidations compared to the total lung tissue and the lung score determined that is a combined score of such percentage of lung consoldiations and the grade. For the “grade” the degree of lung consolidation score was graded from 0 to 3 for each of eight lung lobes: 0 no visible changes, 1 low graded colour changes or induration, 2 medium graded induration, 3 high graded induration, hepatisation, necrosis.
The geometrical means (CFU/g tissue) of bacteriological re-isolations of Mannheimia haemolytica from lung tissue are illustrated in FIG. 7-4.

[1] = test system: M. haemolytica M7/2, serotype A:1, ID 6357; experiment: Mannheimia haemolytica cattle lung infection model, efficacy (Example 8); type: in vivo, Holstein black pied cattle calves; parameters: key to General behavior, score: 0 = normal; 1 = slightly depressive; 2 = moderately depressive; 3 = highly depressive; 4 = recumbency; key to Re-isolation of bacteria, Left Bronchial swab / Re-isolation of bacteria, Right Bronchial swab: − no bacterial growth; + low; ++ medium; +++ high amount of bacterial growth; conditions: for Food consumption, cumulated for all animals in the group: 3 calves; for Lung score (including grade and percent Lung consolidation): grade of consolidation 0 to 3
Method: 15 male Holstein black pied cattle calves of ca. 4 months age were randomly assigned to the study groups ensuring an equal distribution of body weight. The animal weight was approximately 98-133.5 kg on D-1.
Calves were infected on Day 0 via intratracheal instillation of approximately 300 mL of a M. haemolytica PBS suspension containing approximately 3×10^9 CFU M. haemolytica in late log phase.
Three animals each were treated one hour after infection by subcutaneous (SC) administration of Compound 329 in an aqueous 30% (w/v) Captisol® solution for injection at a dose of 10 mg/kg BW.
The respective dose volume was injected on the sides of the thoracic wall. Injection volumes exceeding 10 mL were divided into one portion of 10 mL administered to the left side and the remaining rest administered at different injection sites on the other side. Animals in one control group were treated with a commercially available Enrofloxacin solution (Baytril ® 10%, Bayer Animal Health) at the recommended dose of 10 mg/kg BW. The second control group was treated with the galenic diluent (30% (w/v) Captisol®, dissolved in water) as placebo.
Food consumption was measured. Single individual blood samples were collected from the 12 animals at the following time points: D-1 (predose), 30 minutes, 2, 4, 6, 24 h and at D2 (ca. 45 h) after administration. After the day 2 blood sampling, the infected cattle were slaughtered. The lungs were weighted. Lung states and lung scores were observed morphologically.
At necropsy from animals treated with test items or the positive control, samples of epithelial lining fluid (ELF), lung tissue, and additionally tissue of liver and kidney were collected. From each lung two bacteriological swaps were taken from the left and right bronchus.
From each lung two tissue samples were collected by clipping from at least two locations, one from morphologically unchanged tissue, one from the edge of pathomorphologically changed areas.

[2] = D 0 am, after infection and treatment
[3] = section on day 2, infected calves, SC 10 mg/kg, individual animals and mean, 10 mg/kg
[4] = section on day 2, infected calves, SC 10 mg/kg, individual animals and mean, 10 mg/kg, mean
[5] = section on day 2, infected calves, SC single 10 mg/kg, individual animals

## CCN1CCN(c2cc3c(cc2F)c(=O)c(C(=O)O)cn3C2CC2)CC1 [Enrofloxacin, reference compound]
M. haemolytica; [2]
  Food consumption, cumulated for all animals in the group: 1667 g
M. haemolytica; D 0 pm
  Food consumption, cumulated for all animals in the group: 4800 g
M. haemolytica; D +1 am
  Food consumption, cumulated for all animals in the group: 4800 g
M. haemolytica; D +1 pm
  Food consumption, cumulated for all animals in the group: 4800 g
M. haemolytica; D −1 (before infection)
  Food consumption, cumulated for all animals in the group: 4800 g
M. haemolytica M7/2; [2]
  Food consumption, cumulated for all animals in the group: 4027 g
M. haemolytica M7/2; D 0 pm
  Food consumption, cumulated for all animals in the group: 4800 g
M. haemolytica M7/2; D +1 am
  Food consumption, cumulated for all animals in the group: 4737 g
M. haemolytica M7/2; D +1 pm
  Food consumption, cumulated for all animals in the group: 4800 g
M. haemolytica M7/2; D −1 (before infection)
  Food consumption, cumulated for all animals in the group: 4800 g
[1]; D 0 am (before infection), calves, SC 10 mg/kg, individual animals and mean, 10 mg/kg
  General behavior, score: 0
[1]; D 0 am (before infection), calves, SC 10 mg/kg, individual animals and mean, 10 mg/kg, mean
  General behavior, score: 0.0 score
[1]; D 0 am, after infection and treatment, SC 10 mg/kg
  Food consumption, cumulated for all animals in the group: 660 g
[1]; D 0 pm, SC 10 mg/kg
  Food consumption, cumulated for all animals in the group: 4800 g
[1]; D 0 pm, calves infected with M. haemolytica, SC 10 mg/kg 1 h after infection, individual animals and mean, 10 mg/kg
  General behavior, score: 0
[1]; D 0 pm, calves infected with M. haemolytica, SC 10 mg/kg 1 h after infection, individual animals and mean, 10 mg/kg, mean
  General behavior, score: 0.0 score
[1]; D 1 am, calves infected with M. haemolytica, SC 10 mg/kg 1 h after infection, individual animals and mean, 10 mg/kg
  General behavior, score: 0
[1]; D 1 am, calves infected with M. haemolytica, SC 10 mg/kg 1 h after infection, individual animals and mean, 10 mg/kg, mean
  General behavior, score: 0.0 score
[1]; D 1 pm, calves infected with M. haemolytica, SC 10 mg/kg 1 h after infection, individual animals and mean, 10 mg/kg
  General behavior, score: 0
[1]; D 1 pm, calves infected with M. haemolytica, SC 10 mg/kg 1 h after infection, individual animals and mean, 10 mg/kg, mean
  General behavior, score: 0.0 score
[1]; D 2 am, calves infected with M. haemolytica, SC 10 mg/kg 1 h after infection, individual animals and mean, 10 mg/kg
  General behavior, score: 0
[1]; D 2 am, calves infected with M. haemolytica, SC 10 mg/kg 1 h after infection, individual animals and mean, 10 mg/kg, mean
  General behavior, score: 0.0 score
[1]; D +1 am, SC 10 mg/kg
  Food consumption, cumulated for all animals in the group: 4800 g
[1]; D +1 pm, SC 10 mg/kg
  Food consumption, cumulated for all animals in the group: 4800 g
[1]; D −1 (before infection), SC 10 mg/kg
  Food consumption, cumulated for all animals in the group: 4800 g
[1]; infected calves, SC 10 mg/kg, in words
  mean bacterial re-isolation: Very low
[1]; [3]
  Lung score (including grade and percent Lung consolidation): 21.2 and 16.9 and 20.4
  Lung consolidations: 13.0% and 10.8% and 15.3%
  Lung weight: 1334 g and 1765 g and 1429 g
  Lung/body weight ratio: ~1.3% and 1.31% and 1.34% and 1.21% and 1.29%
[1]; [4]
  Lung score (including grade and percent Lung consolidation): 19.5
  Lung consolidations: 13.0%
  Lung weight: 1509 g
[1]; [5]
  Re-isolation of bacteria, Left Bronchial swab: −
  Re-isolation of bacteria, Right Bronchial swab: −
